Measurements taken from patent US20260116921A1, “PEPTIDE INHIBITORS OF INTERLEUKIN-23 RECEPTOR AND THEIR USE TO TREAT INFLAMMATORY DISEASES” (priority 2018, published 2026).
Numbered stars: 1 amine (or outer) side, 2 acyl side, 3 side chain; on linkers, the order of the positions; unused ones are H or OH. Bridge positions count the residues as written; N and C are the ends. Square brackets hold non-standard residues; d marks the D form. Peptide text beside a SMILES is read from it. X3 = CCc1ccc2c(C[C@H](N[*:1])C(=O)[*:2])c[nH]c2c1; Trp(7-Me) = Cc1cccc2c(C[C@H](N)C(=O)O)c[nH]c12; Abu(4-yl) = O=C([C@H](CC[*:3])N[*:1])[*:2]; 2Nal = N[C@@H](Cc1ccc2ccccc2c1)C(=O)O; AEF = NCCOc1ccc(C[C@H](N)C(=O)O)cc1; Cit = NC(=O)NCCC[C@H](N)C(=O)O; Pen = CC(C)(S)[C@H](N)C(=O)O; αMeK = C[C@](N)(CCCCN)C(=O)O; Aib = CC(C)(N)C(=O)O; βAla = NCCC(=O)O; Sar = CNCC(=O)O

What follows are compounds tested against T1, IL-23R (Homo sapiens, UniProt Q5VWK5) (assay: DB cells IL23R pSTAT3 cell assay (pStat3 HTRF)). Details: not given.
T1 sequence (Q5VWK5 24-629): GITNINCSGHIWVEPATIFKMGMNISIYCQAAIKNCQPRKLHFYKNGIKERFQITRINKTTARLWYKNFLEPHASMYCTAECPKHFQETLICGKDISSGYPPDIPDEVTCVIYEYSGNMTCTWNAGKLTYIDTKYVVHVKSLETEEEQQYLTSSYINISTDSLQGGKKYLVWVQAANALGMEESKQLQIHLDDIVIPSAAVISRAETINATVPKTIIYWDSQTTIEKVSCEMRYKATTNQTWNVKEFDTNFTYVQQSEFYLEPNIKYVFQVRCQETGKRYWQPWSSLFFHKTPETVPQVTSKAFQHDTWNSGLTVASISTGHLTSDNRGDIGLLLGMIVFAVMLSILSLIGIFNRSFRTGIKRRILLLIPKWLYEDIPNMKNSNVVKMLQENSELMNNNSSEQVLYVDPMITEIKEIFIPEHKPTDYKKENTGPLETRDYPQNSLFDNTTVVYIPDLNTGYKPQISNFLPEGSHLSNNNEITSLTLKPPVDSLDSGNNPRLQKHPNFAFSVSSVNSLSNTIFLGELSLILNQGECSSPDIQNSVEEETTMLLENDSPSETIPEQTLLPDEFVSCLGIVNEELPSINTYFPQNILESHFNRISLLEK
Type: cell-based
Excerpt: Human ELISA indicates the IL23-IL23R competitive binding assay described below, Rat ELISA indicates the rat IL-23R competitive binding ELISA assay described below, and pStat3HTRF indicates the DB cells IL-23R pSTAT3 cell assay described below. The peptides depicted in Table E1 are cyclized via a disulfide bridge formed between two Pen residues in these peptides. The peptides depicted in Table E2 are cyclized via a thioether bond between the indicated amino acid residues. Table E2 provides an illustrative structure depicting thioether cyclization, which is indicated in the table by the term “cyclo,” with the cyclic region bracketed immediately following the term “cyclo.” For certain peptides, the residue Abu is present where indicated, whereas in other embodiments, e.g., those related to the non-cyclized form, the Abu may be referred to as a hSer(Cl) or homoSer residue.
DB Cells IL23R pSTAT3 Cell Assay
IL-23 plays a central role in supporting and maintaining Th17 differentiation in vivo. This process is thought to be mediated primarily through the Signal Transducer and Activator of Transcription 3 (STAT3), with phosphorylation of STAT3 (to yield pSTAT3) leading to upregulation of RORC and pro-inflammatory IL-17. This cell assay examines the levels of pSTAT3 in IL-23R-expressing DB cells when stimulated with IL-23 in the presence of test compounds. Serial dilutions of test peptides and IL-23 (Humanzyme #HZ-1261) at a final concentration of 0.5 nM, were added to each well in a 96 well tissue culture plate (Corning #CLS3894). DB cells (ATCC #CRL-2289), cultured in RPMI-1640 medium (Thermo Scientific #11875093) supplemented with 10% FBS, were added at 5×10E5 cells/well and incubated for 30 minutes at 37° C. in a 5% CO2 humidified incubator. Changes in phospho-STAT3 levels in the cell lysates were detected using the Cisbio HTRF pSTAT3 (Tyr705) Cellular Assay Kit (Cisbio #62AT3PEH), according to manufacturer's Two Plate Assay protocol.

SMILES	IC50
CCCCCCCC(=O)NCCCC[C@@H]1NC(=O)[C@H](Cc2c[nH]c3c(C)cccc23)NC(=O)[C@H]([C@@H](C)O)NC(=O)[C@H](CC(N)=O)NC(=O)[C@@H](NC(C)=O)C(C)(C)SSC(C)(C)[C@@H](C(=O)N[C@@H](Cc2ccc(OCCN)cc2)C(=O)N[C@@H](Cc2ccc3ccccc3c2)C(=O)N[C@@](C)(CCCCN)C(=O)N[C@@H](CCCCNC(C)=O)C(=O)N[C@@H](CC(N)=O)C(=O)N[C@H](CC(C)C)C(N)=O)NC1=O [compound 317]	1 to 10 nM
CC(=O)NCCCC[C@H](NC(=O)[C@](C)(CC(C)C)NC(=O)[C@H](Cc1c[nH]c2ccc(O)cc12)NC(=O)[C@H](Cc1ccc(OCCN)cc1)NC(=O)[C@H]1NC(=O)[C@H](CCC(N)=O)NC(=O)[C@H](Cc2c[nH]c3ccccc23)NC(=O)[C@H]([C@@H](C)O)NC(=O)[C@H](CC(N)=O)NC(=O)[C@@H](NC(C)=O)C(C)(C)SSC1(C)C)C(=O)N[C@@H](CC(N)=O)C(=O)N[C@@H](CC(N)=O)C(N)=O [compound 21]	> 100 nM
CCc1ccc2c(C[C@@H]3NC(=O)[C@H]([C@@H](C)O)NC(=O)[C@H](CC(N)=O)NC(=O)[C@@H](NC(C)=O)C(C)(C)SSC(C)(C)[C@@H](C(=O)N[C@@H](Cc4ccc(OCCN)cc4)C(=O)N[C@@H](Cc4ccc5ccccc5c4)C(=O)N[C@@](C)(CCCCN)C(=O)N[C@@H](CCCCNC(C)=O)C(=O)N[C@@H](CC(N)=O)C(=O)N[C@H](CCCCN)C(N)=O)NC(=O)[C@H](CCCCNC(C)=O)NC3=O)c[nH]c2c1 [compound 349] (Ac-[Pen]NT[X3]K(Ac)[Pen][AEF][2Nal][αMeK]K(Ac)N[dK]-NH2; disulfide 1-6)	1 to 10 nM
CC(=O)NCCCC[C@H](NC(=O)[C@](C)(CC(C)C)NC(=O)[C@H](Cc1ccc2ccccc2c1)NC(=O)[C@H](Cc1ccc(OCCN)cc1)NC(=O)[C@H]1NC(=O)[C@H](CCC(N)=O)NC(=O)[C@H](Cc2c[nH]c3ccc(O)cc23)NC(=O)[C@H]([C@@H](C)O)NC(=O)[C@H](CC(N)=O)NC(=O)[C@@H](NC(C)=O)C(C)(C)SSC1(C)C)C(=O)N[C@@H](CC(N)=O)C(=O)N[C@@H](CC(N)=O)C(N)=O [compound 10]	> 100 nM
CC(=O)NCCCC[C@H](NC(=O)[C@](C)(CC(C)C)NC(=O)[C@H](Cc1c[nH]c2ccc(Br)cc12)NC(=O)[C@H](Cc1ccc(OCCN)cc1)NC(=O)[C@H]1NC(=O)[C@H](CCC(N)=O)NC(=O)[C@H](Cc2c[nH]c3ccccc23)NC(=O)[C@H]([C@@H](C)O)NC(=O)[C@H](CC(N)=O)NC(=O)[C@@H](NC(C)=O)C(C)(C)SSC1(C)C)C(=O)N[C@@H](CC(N)=O)C(=O)N[C@@H](CC(N)=O)C(N)=O [compound 22]	1 to 10 nM
CC(=O)NCCCC[C@H](NC(=O)[C@](C)(CC(C)C)NC(=O)[C@H](Cc1c[nH]c2c(F)cccc12)NC(=O)[C@H](Cc1ccc(OCCN)cc1)NC(=O)[C@H]1NC(=O)[C@H](CCC(N)=O)NC(=O)[C@H](Cc2c[nH]c3ccccc23)NC(=O)[C@H]([C@@H](C)O)NC(=O)[C@H](CC(N)=O)NC(=O)[C@@H](NC(C)=O)C(C)(C)SSC1(C)C)C(=O)N[C@@H](CC(N)=O)C(=O)N[C@@H](CC(N)=O)C(N)=O [compound 19]	10 to 100 nM
CC(=O)NCCCC[C@H](NC(=O)[C@](C)(CC(C)C)NC(=O)[C@H](Cc1ccc2ccccc2c1)NC(=O)[C@H](Cc1ccc(OCCN)cc1)NC(=O)[C@H]1NC(=O)[C@H](CCC(N)=O)NC(=O)[C@H](Cc2c[nH]c3cc(F)ccc23)NC(=O)[C@H]([C@@H](C)O)NC(=O)[C@H](CC(N)=O)NC(=O)[C@@H](NC(C)=O)C(C)(C)SSC1(C)C)C(=O)N[C@@H](CC(N)=O)C(=O)N[C@@H](CC(N)=O)C(N)=O [compound 3]	10 to 100 nM

Same assay, conditions: Table E3; DB cells, IL-23 0.5 nM, 30 minutes at 37° C.; read-out: pStat3 HTRF (IC50)

SMILES	IC50
CC(=O)NCCCC[C@H](NC(=O)[C@](C)(CCCCN)NC(=O)[C@H](Cc1ccc2ccccc2c1)NC(=O)[C@H](Cc1ccc(OCCN)cc1)NC(=O)[C@H]1NC(=O)[C@H](CCCNC(N)=O)NC(=O)[C@H](Cc2c[nH]c3c(C)cccc23)NC(=O)[C@H]([C@@H](C)O)NC(=O)[C@H](CC(N)=O)NC(=O)[C@@H](NC(C)=O)C(C)(C)SSC1(C)C)C(=O)N[C@@H](CC(N)=O)C(=O)NC(C)(C)C(=O)N[C@H](Cc1ccc(O)cc1)C(N)=O [compound 347] (Ac-[Pen]NT[Trp(7-Me)][Cit][Pen][AEF][2Nal][αMeK]K(Ac)N[Aib][dY]-NH2; disulfide 1-6)	< 1 nM
CC(=O)NCCCC[C@@H]1NC(=O)[C@H](Cc2c[nH]c3c(C)cccc23)NC(=O)[C@H]([C@@H](C)O)NC(=O)[C@H](CCC(N)=O)NC(=O)[C@@H](NC(=O)[C@@H](CCCNC(=N)N)NC(C)=O)CCSC[C@@H](C(=O)N[C@@H](Cc2ccc(OCCN)cc2)C(=O)N[C@@H](Cc2ccc3ccccc3c2)C(=O)N[C@@](C)(CCCCN)C(=O)N[C@@H](CCCCNC(C)=O)C(=O)N[C@@H](CC(N)=O)C(=O)N[C@H](CCCCN)C(=O)N(C)CC(N)=O)NC1=O [compound 323] (Ac-[dR][Abu(4-yl)]QT[Trp(7-Me)]K(Ac)C[AEF][2Nal][αMeK]K(Ac)N[dK][Sar]-NH2; thioether 2-7)	1 to 10 nM
CC(=O)NCCCC[C@H](NC(=O)[C@](C)(CCCCN)NC(=O)[C@H](Cc1ccc2ccccc2c1)NC(=O)[C@H](Cc1ccc(OCCN)cc1)NC(=O)[C@H]1NC(=O)[C@H](CCCNC(N)=O)NC(=O)[C@H](Cc2c[nH]c3c(C)cccc23)NC(=O)[C@H]([C@@H](C)O)NC(=O)[C@H](CC(N)=O)NC(=O)[C@@H](NC(C)=O)C(C)(C)SSC1(C)C)C(=O)N[C@@H](CC(N)=O)C(=O)NC(C)(C)C(=O)NCC(N)=O [compound 341] (Ac-[Pen]NT[Trp(7-Me)][Cit][Pen][AEF][2Nal][αMeK]K(Ac)N[Aib]G-NH2; disulfide 1-6)	< 1 nM
COc1cccc2c(C[C@@H]3NC(=O)[C@H]([C@@H](C)O)NC(=O)[C@H](CC(N)=O)NC(=O)[C@@H](NC(C)=O)C(C)(C)SSC(C)(C)[C@@H](C(=O)N[C@@H](Cc4ccc(OCCN)cc4)C(=O)N[C@@H](Cc4ccc5ccccc5c4)C(=O)N[C@@](C)(CCCCN)C(=O)N[C@@H](CCCCNC(C)=O)C(=O)N[C@@H](CC(N)=O)C(=O)N[C@H](CCCCN)C(N)=O)NC(=O)[C@H](CCC(N)=O)NC3=O)c[nH]c12 [compound 297]	1 to 10 nM
CC(=O)NCCCC[C@H](NC(=O)[C@](C)(CCCCN)NC(=O)[C@H](Cc1ccc2ccccc2c1)NC(=O)[C@H](Cc1ccc(OCCN)cc1)NC(=O)[C@H]1NC(=O)[C@H](CCCNC(N)=O)NC(=O)[C@H](Cc2c[nH]c3c(C)cccc23)NC(=O)[C@H]([C@@H](C)O)NC(=O)[C@H](CC(N)=O)NC(=O)[C@@H](NC(C)=O)C(C)(C)SSC1(C)C)C(=O)N[C@@H](CC(N)=O)C(=O)NC(C)(C)C(=O)NCCC(N)=O [compound 340] (Ac-[Pen]NT[Trp(7-Me)][Cit][Pen][AEF][2Nal][αMeK]K(Ac)N[Aib][βAla]-NH2; disulfide 1-6)	< 1 nM
COc1cccc2c(C[C@@H]3NC(=O)[C@H]([C@@H](C)O)NC(=O)[C@H](CC(N)=O)NC(=O)[C@@H](NC(C)=O)C(C)(C)SSC(C)(C)[C@@H](C(=O)N[C@@H](Cc4ccc(OCCN)cc4)C(=O)N[C@@H](Cc4ccc5ccccc5c4)C(=O)N[C@@](C)(CCCCN)C(=O)N[C@@H](CCCCNC(C)=O)C(=O)N[C@@H](CC(N)=O)C(=O)N[C@H](CCCCN)C(N)=O)NC(=O)[C@H](CCCCNC(C)=O)NC3=O)c[nH]c12 [compound 299]	1 to 10 nM
